According to US5508180A, “Biocatalytic oxidation using soybean peroxidase” (Enzymol International, Inc., priority 1994, dated 1996):

Legend:
Format in all cases: biochemical
soybean peroxidase [1] = target: T1, soybean peroxidase (Glycine max, UniProt O22443); experiment: Oxygen-mediated hydroxylation of tyrosine by soybean peroxidase with dihydroxyfumaric acid, loss of DHF absorbance
T1 construct: secreted heme glycoprotein, reported 37 kDa
Procedure: Tyrosine, 0.2 g was added to 150 ml water and HCl was added until the tyrosine dissolved at about pH 3. Dihydroxyfumaric acid (DHF), 0.44 g was added to 100 ml water and dilute (1%) sodium hydroxide was added until the acid dissolved at about pH 3.
Hydroxylation of tyrosine was achieved by mixing 2 ml tyrosine solution, 1 ml 0.1M buffer selected from a range of pH 1-13, 0.1 ml soybean peroxidase at 10 mg/ml and last, adding 0.1 ml DHF stock solution. The reference curvette contained the same mixture of tyrosine, buffer and DHF stock solutions. No hydrogen peroxide was used in these reaction. Dissolved oxygen from air served as the source of oxidant. Peak wavelength corresponding to DHF, determined by DHF absorbance in the solution, was monitored for loss in absorbance, indicating consumption of the reducing agent and hydroxylation of the phenol. Oxidation was followed by monitoring wavelengths from 500 to 200 nm at zero time and 1 minute of reaction. The absorbance difference at the wavelength corresponding to loss of DHF was recorded.

soybean peroxidase [2] = target: T1, soybean peroxidase; experiment: Oxidation of methyl p-tolyl sulfide to sulfoxide and sulfone by soybean peroxidase; details: for Absorbance Units at 308 nm: pH 2 (conversion to sulfone)
Procedure: Methyl p-tolyl sulfide (MTS), and the enantiomeric oxidation products (R)-(+)-methyl tolyl sulfoxide (MTSO) and (S)-(-)-methyl tolyl sulfoxide, were purchased from Aldrich (Milwaukee, Wis). A stock solution of MTS was prepared by adding 1 g MTS to 750 ml water and heating at 60° C. for 15 min. A warm stock solution was used for all assays to maintain the substrate in solution. […] At pH 2 these peaks shift to 274 and 311 nm, respectively.
Assays with MTS were done with 120 ppu SBP and 1 mM H2 O2.
The effect of pH on the oxidation of MTS was studied to optimize the reaction. Buffers were used at the indicated pH at 25 mM concentration.
The effect of temperature on aromatic sulfide oxidation was investigated at pH 3.5 using MTS. Conditions were 120 ppu SBP, 25 mM Glycine, 2 mM MTS, 1 mM H2 O2.

soybean peroxidase [3] = target: T1, soybean peroxidase; experiment: Demethylation (oxidation) of methoxybenzenes by soybean peroxidase, absorbance of quinone products; details: pH 2
Procedure: 0.1 ml soybean peroxidase (120 purpurogallin units/ml) stock solution was added to 3 ml veratryl alcohol solution (1 g veratryl alcohol in 750 ml water) and vortexed in a test tube. 20 μl peroxide stock solution was added, mixed and the solution poured into a 1 cm path, 4 ml quartz cuvette. Using a Shimadzu UV-160 double beam recording spectophotometer, the change in absorbance of the sample compared to a reference cuvette containing 3 ml veratryl alcohol solution only was monitored every minute by scanning wavelengths from 500 to 200 nm. The peak wavelength of 308 nm was identified as veratryl aldehyde and was used for further monitoring. The kinetics of the reaction were determined from the linear portion of the increase in absorbance.
Using assay methods described in Example 15, three methoxybenzenes were tested for oxidation by soybean peroxidase (SBP). These compounds were: 1,4-Dimethoxybenzene (DMB), 1,2,3-Trimethoxybenzene (TMB) and 1,3,5-Trimethoxybenzene (TMB). Stock solutions were prepared by heating 1 g (0.5g 1,3,5-TMB) in 750 ml water to 60 deg C on a stirring hot plate, allowing the solution to cool to room temperature and adjusting the pH to 2 with HCl. Assays were performed as described in Example 1. Initially, a scan of wavelengths from 500 to 200 nm every minute was done during each substrate oxidation to find suitable wavelengths to monitor for the corresponding quinone products.
For example, a comparison of the rates of oxidation of 1,4-dimethoxybenzene at pH 2 where the pH was adjusted with HCl in one case and with HNO3 in a second case is shown in Table 11.

T1 sequence (O22443 27-332): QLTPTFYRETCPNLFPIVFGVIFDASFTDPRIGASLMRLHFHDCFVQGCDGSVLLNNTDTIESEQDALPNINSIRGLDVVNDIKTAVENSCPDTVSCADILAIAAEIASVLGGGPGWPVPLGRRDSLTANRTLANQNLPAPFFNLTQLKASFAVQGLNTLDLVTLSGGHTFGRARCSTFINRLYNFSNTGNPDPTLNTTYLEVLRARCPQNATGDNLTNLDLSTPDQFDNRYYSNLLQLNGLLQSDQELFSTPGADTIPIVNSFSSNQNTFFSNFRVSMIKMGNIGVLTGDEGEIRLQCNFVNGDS

N[C@@H](Cc1ccc(O)cc1)C(=O)O [tyrosine, Tyrosine]
dA per min (soybean peroxidase [1]; pH 1, λ 310 nm, loss of DHF absorbance): 0
dA per min (soybean peroxidase [1]; pH 2, λ 315 nm, loss of DHF absorbance): 0.012
dA per min (soybean peroxidase [1]; pH 3, λ 321 nm, loss of DHF absorbance): 0.726
dA per min (soybean peroxidase [1]; pH 3.5, λ 318 nm, loss of DHF absorbance): 0.886
dA per min (soybean peroxidase [1]; pH 4, λ 319 nm, loss of DHF absorbance): 0.065
dA per min (soybean peroxidase [1]; pH 4.5, λ 320 nm, loss of DHF absorbance): 0.391
dA per min (soybean peroxidase [1]; pH 5, λ 303 nm, loss of DHF absorbance): 1.897
dA per min (soybean peroxidase [1]; pH 5.5, λ 302 nm, loss of DHF absorbance): 0.971
dA per min (soybean peroxidase [1]; pH 6, λ 302 nm, loss of DHF absorbance): 2.226
dA per min (soybean peroxidase [1]; pH 6.5, λ 302 nm, loss of DHF absorbance): 2.134
dA per min (soybean peroxidase [1]; pH 7, interference from Tris buffer): 0
dA per min (soybean peroxidase [1]; pH 7.5, interference from Tris buffer): 0
dA per min (soybean peroxidase [1]; pH 8, interference from Tris buffer): 0
dA per min (soybean peroxidase [1]; pH 8.5, λ 305 nm, loss of DHF absorbance): 1.098
dA per min (soybean peroxidase [1]; pH 9, λ 304 nm, loss of DHF absorbance): 1.705
dA per min (soybean peroxidase [1]; pH 9.5, λ 302 nm, loss of DHF absorbance): 1.66
dA per min (soybean peroxidase [1]; pH 10, λ 302 nm, loss of DHF absorbance): 0.768
dA per min (soybean peroxidase [1]; pH 10.5, λ 302 nm, loss of DHF absorbance): 1.372
dA per min (soybean peroxidase [1]; pH 11, λ 302 nm, loss of DHF absorbance): 1.988
dA per min (soybean peroxidase [1]; pH 11.5, λ 305 nm, loss of DHF absorbance): 0.075
dA per min (soybean peroxidase [1]; pH 12, λ 305 nm, loss of DHF absorbance): 0.069
dA per min (soybean peroxidase [1]; pH 13, λ 305 nm, loss of DHF absorbance): 0

CSc1ccc(C)cc1 [MTS, Methyl p-tolyl sulfide]
pH optimum of oxidation of MTS to MTSO (soybean peroxidase [2]): 3.5
dA per min at 279 nm (soybean peroxidase [2]; 25 °C, pH 3.5, 120 ppu SBP, 25 mM Glycine, 2 mM MTS, 1 mM H2O2): 0.0607
dA per min at 279 nm (soybean peroxidase [2]; 35 °C, pH 3.5, 120 ppu SBP, 25 mM Glycine, 2 mM MTS, 1 mM H2O2): 0.0824
dA per min at 279 nm (soybean peroxidase [2]; 45 °C, pH 3.5, 120 ppu SBP, 25 mM Glycine, 2 mM MTS, 1 mM H2O2): 0.1012
dA per min at 279 nm (soybean peroxidase [2]; 55 °C, pH 3.5, 120 ppu SBP, 25 mM Glycine, 2 mM MTS, 1 mM H2O2): 0.1735
dA per min at 279 nm (soybean peroxidase [2]; 65 °C, pH 3.5, 120 ppu SBP, 25 mM Glycine, 2 mM MTS, 1 mM H2O2): 0.2563
dA per min at 279 nm (soybean peroxidase [2]; 75 °C, pH 3.5, 120 ppu SBP, 25 mM Glycine, 2 mM MTS, 1 mM H2O2): 0.1065
dA per min at 279 nm (soybean peroxidase [2]; 85 °C, pH 3.5, 120 ppu SBP, 25 mM Glycine, 2 mM MTS, 1 mM H2O2): 0.0908
dA per min at 279 nm (soybean peroxidase [2]; pH 1, 25 mM buffer): 0.0348
dA per min at 279 nm (soybean peroxidase [2]; pH 2, 25 mM buffer): -0.1376
dA per min at 279 nm (soybean peroxidase [2]; pH 3, 25 mM buffer): 0.1042
dA per min at 279 nm (soybean peroxidase [2]; pH 3.5, 25 mM buffer): 0.218
dA per min at 279 nm (soybean peroxidase [2]; pH 4, 25 mM buffer): 0.0893
dA per min at 279 nm (soybean peroxidase [2]; pH 4.5, 25 mM buffer): 0.0017
Absorbance Units at 308 nm (soybean peroxidase [2]; time of reaction 0 min): 0.21 Absorbance Units
Absorbance Units at 308 nm (soybean peroxidase [2]; time of reaction 1 min): 0.293 Absorbance Units
Absorbance Units at 308 nm (soybean peroxidase [2]; time of reaction 2 min): 0.35 Absorbance Units
Absorbance Units at 308 nm (soybean peroxidase [2]; time of reaction 3 min): 0.381 Absorbance Units
Absorbance Units at 308 nm (soybean peroxidase [2]; time of reaction 4 min): 0.401 Absorbance Units

COc1cc(OC)cc(OC)c1 [1,3,5-TMB, 1,3,5-Trimethoxybenzene]
dA per minute (286 nm) (soybean peroxidase [3]; 35 °C): 0.0282
dA per minute (286 nm) (soybean peroxidase [3]; 45 °C): 0.474
dA per minute (286 nm) (soybean peroxidase [3]; 55 °C): 0.097
dA per minute (286 nm) (soybean peroxidase [3]; 65 °C): 0.1724
dA per minute (286 nm) (soybean peroxidase [3]; 75 °C): 0.0262
